Source: publication PMC6600574 (Molecules, 2019)
Like-named read-outs stand apart in the source and are kept apart here.

What was measured:
[1] = molecular target: T1, CYP 1A1 (placental microsomes) (Homo sapiens, UniProt P04798); assay: Inhibition of placental microsome-catalyzed CYP oxidation; type: in vitro ADME; settings: CYP 1A1, substrate TFD024, placental microsomes
T1 construct: from tissue; host or cells: human placental microsomes
T1 sequence (P04798 1-512): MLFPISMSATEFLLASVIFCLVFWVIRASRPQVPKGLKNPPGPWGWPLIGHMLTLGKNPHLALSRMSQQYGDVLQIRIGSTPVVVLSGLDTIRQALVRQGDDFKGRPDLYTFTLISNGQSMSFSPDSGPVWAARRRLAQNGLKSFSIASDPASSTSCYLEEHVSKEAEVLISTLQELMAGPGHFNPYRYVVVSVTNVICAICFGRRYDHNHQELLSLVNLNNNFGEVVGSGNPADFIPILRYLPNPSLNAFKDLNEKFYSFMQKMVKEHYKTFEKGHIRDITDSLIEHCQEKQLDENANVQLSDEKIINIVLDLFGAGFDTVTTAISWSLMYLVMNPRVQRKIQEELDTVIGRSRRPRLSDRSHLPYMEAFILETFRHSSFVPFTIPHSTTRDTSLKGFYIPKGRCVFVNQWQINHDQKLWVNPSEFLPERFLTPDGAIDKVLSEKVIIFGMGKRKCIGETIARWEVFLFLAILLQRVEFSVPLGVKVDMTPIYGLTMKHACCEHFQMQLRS
Procedure: (§1) Incubations were carried out in a total volume of 100 µl of 100 mM Tris-HCl buffer (pH 7.4) in all black, flat-bottom Costar 96-well plates (Corning Incorporated, Corning, NY, USA). […] The samples were then preincubated at 37 °C for 10 min. The reactions were initiated by the addition of NADPH, and 0–10 µM 7-hydroxycoumarin was used as the standard. The fluorescent signal was measured with a Victor^2 1420 multilabel plate counter (PerkinElmer Lifesciences Wallac, Turku, Finland) with excitation and emission wavelengths of 405 and 460 nm, respectively. Fluorescence was monitored every 2 min for 40 min from where the concentration was calculated at the various time points. From these, oxidation rates (µM/min) and the relative remaining activity of the sample at different concentrations were calculated. The data were fit to sigmoidal dose-response curves with nonlinear regression, and IC50 values (the concentration at which the sample reduced the metabolism of the CYP substrate by 50%) were determined. […] This was analyzed using nonlinear equations in Graph Pad Prism, which produced IC50 values and its 95% confidence interval as the results.

recombinant CYP 2A6 = molecular target: T2, recombinant CYP 2A6 (Homo sapiens, UniProt P11509); assay: Inhibition of recombinant CYP oxidation (fluorescent coumarin substrate); type: in vitro ADME; settings: CYP 2A6, substrate coumarin, 5 nM recombinant CYP, verbascoside 0.4-50 µM
T2 construct: purchased BD Biosciences Discovery Labware (Bedford, MA, USA)
T2 sequence (P11509 1-494): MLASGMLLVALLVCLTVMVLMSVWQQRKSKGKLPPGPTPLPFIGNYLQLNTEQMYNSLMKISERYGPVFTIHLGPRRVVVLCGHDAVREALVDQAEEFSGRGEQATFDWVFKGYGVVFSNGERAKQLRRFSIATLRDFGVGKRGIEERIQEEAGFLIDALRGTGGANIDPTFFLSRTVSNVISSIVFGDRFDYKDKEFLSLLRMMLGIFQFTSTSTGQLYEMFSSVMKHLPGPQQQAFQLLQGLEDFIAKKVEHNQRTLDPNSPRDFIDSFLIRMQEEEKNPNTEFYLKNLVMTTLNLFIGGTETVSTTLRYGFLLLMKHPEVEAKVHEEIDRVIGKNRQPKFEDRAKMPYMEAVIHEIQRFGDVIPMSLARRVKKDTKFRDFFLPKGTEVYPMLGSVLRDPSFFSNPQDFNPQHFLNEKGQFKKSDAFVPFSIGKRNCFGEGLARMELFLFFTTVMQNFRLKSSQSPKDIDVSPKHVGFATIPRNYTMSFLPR
Procedure: as §1

CYP1A2 = molecular target: T3, CYP1A2 (Homo sapiens, UniProt P05177); assay: as above; type: in vitro ADME; settings: read-out: Recombinant CYP IC50 (µM) with 95% confidence intervals
T3 construct: purchased BD Biosciences Discovery Labware (Bedford, MA, USA)
T3 sequence (P05177 whole entry): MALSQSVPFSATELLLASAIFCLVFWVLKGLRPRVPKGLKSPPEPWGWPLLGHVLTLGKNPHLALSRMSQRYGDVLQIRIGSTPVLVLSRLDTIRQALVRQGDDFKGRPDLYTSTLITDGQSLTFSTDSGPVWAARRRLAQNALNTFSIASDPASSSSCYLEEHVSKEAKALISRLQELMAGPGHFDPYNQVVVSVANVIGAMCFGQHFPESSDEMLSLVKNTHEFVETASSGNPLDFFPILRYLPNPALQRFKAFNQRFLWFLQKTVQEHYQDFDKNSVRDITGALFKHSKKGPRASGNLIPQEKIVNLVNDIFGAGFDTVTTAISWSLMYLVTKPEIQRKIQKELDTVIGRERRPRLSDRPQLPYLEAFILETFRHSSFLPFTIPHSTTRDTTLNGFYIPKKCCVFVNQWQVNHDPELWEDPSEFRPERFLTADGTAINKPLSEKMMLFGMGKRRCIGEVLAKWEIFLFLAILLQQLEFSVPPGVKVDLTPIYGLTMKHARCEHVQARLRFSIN
Procedure: as §1

[2] = tested on: peripheral blood mononuclear cells (PBMC); assay: Cellular antiproliferative activity (PrestoBlue); type: cell-based, human; settings: 48 h, read-out: Peripheral Blood Mononuclear Cell (PBMC) IC50
Procedure: (2012) was performed. PBMC isolation and testing was approved by the Ethics Committee of the Department of Natural and Agricultural Sciences, University of Pretoria, Pretoria (Doc nr: EC120411-046; 17.05.2012). Briefly, peripheral blood mononuclear cells were isolated from blood that was freshly donated on the same day at the Student Clinic at the University of Pretoria. Mononuclear cells were isolated by centrifugation over Ficoll-Hypaque, a density gradient solution, with a density gradient of 1.07 g/mL. A layer of fresh heparinized venous blood was layered on the Ficoll-Hypaque at a ratio of 1:1 with supplemented RPMI 1640 media and then subjected to centrifugation at 3000 rpm for 30 min. Through centrifugation, the whole blood sample was separated into its different layers. […] The cells were counted and seeded in 96-well plates with a cell density of 10,000 cells/mL. The following formula was used to adjust the cell concentrations (Equation 1): (1) Concentration of the cells=Cells counted/number of blocks counted×10000.
The HepG2 cell line was seeded with a concentration of 1 × 10^5 cells/well. […] The absorbance was read at 490 nm with a reference wavelength of 690 nm using a BIO-TEK Power-Wave XS multiwell plate reader. The assay was performed in triplicate, and the mean IC50 values were calculated.

Question: With `C[C@@H]1O[C@@H](O[C@@H]2[C@@H](O)[C@H](OCCc3ccc(O)c(O)c3)O[C@H](CO)[C@H]2OC(=O)/C=C/c2ccc(O)c(O)c2)[C@H](O)[C@H](O)[C@H]1O` [Verbascoside] as the compound, how does the “Microsomal IC50 (µM) with 95% Confidence Intervals” value [1] read?
Answer: Its value is “did not inhibit”.

Question: And the IC50 ([1]; read-out: Microsomal IC50 (µM) with 95% Confidence Intervals)?
Answer: The IC50 was 350 µM.

Question: What about the “Recombinant CYP IC50 (µM) with 95% confidence intervals” value (recombinant CYP 2A6) of the same compound?
Answer: Its value is “No inhibition”.

Question: What about the “Recombinant CYP IC50 (µM) with 95% confidence intervals” value (recombinant CYP 2A6; listed as verbascoside) of the same compound?
Answer: The value was “did not inhibit”.

Question: And the IC50 at 40 min (CYP1A2; human, recombinant CYP1A2, pH 7.4)?
Answer: Its IC50 at 40 min is greater than 50 µM.

Question: And the IC50 (CYP1A2)?
Answer: The IC50 was 83 µM.

Question: And the IC50 [2]?
Answer: The IC50 was 170 ± 3.73 µM.

Question: What about the IC50 ([2]; Homo sapiens, PBMC) of the same compound?
Answer: The IC50 was greater than 100 µM.
